The values below come from PubChem BioAssay (NCI).

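48-hour exposure; five concentrations; linearly interpolated endpoints. Definition used: TGI = concentration required for complete inhibition of growth.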 Where only a bound is given, the exact number is not on record here.

Some test systems named below: NCI-H226 lung; CCRF-CEM leukemia; ACHN renal; CAKI-1 renal; RXF 393 renal; COLO 205 colon; TK-10 renal; NCI/ADR-RES ovarian; EKVX NSCLC; HOP-92 NSCLC; BT-549 breast; MDA-MB-435; NCI-H460 lung; SNB-19 CNS; SK-MEL-28 melanoma; SF-268 CNS; SW-620 colon; HCT-15 colon; K-562 leukemia; HS 578T breast.
What all share (experiment): DTP human tumour cell line panel, 48 h

Take `Cn1c(=O)oc2cc(C(O)CN3CCN(Cc4ccc5c(c4)OCO5)CC3)ccc21` (stereo unspecified): the TGI in the test with NCI-H226 lung, in the test with CCRF-CEM leukemia, in the test with ACHN renal, with CAKI-1 renal, in the test on RXF 393 renal and with COLO 205 colon was more than 100 µM throughout. For the same compound, the TGI in the test on TK-10 renal, in the test with NCI/ADR-RES ovarian, in the test on EKVX NSCLC, in the test with HOP-92 NSCLC, in the test with BT-549 breast and in the test on MDA-MB-435 was more than 100 µM each time. The TGI with NCI-H460 lung, in the test with SNB-19 CNS, in the test with SK-MEL-28 melanoma, in the test on SF-268 CNS, in the test on SW-620 colon and in the test on HCT-15 colon was more than 100 µM in each case. In the test with K-562 leukemia, this compound yielded a TGI of more than 100 µM.

In the case of `Cc1ccc(N=NC(=O)NNc2ccc(C)cc2Br)c(Br)c1`, the TGI in the test on NCI-H226 lung was 62.8 µM; in the test on CCRF-CEM leukemia it was 21 µM; with ACHN renal, 89.1 µM; with CAKI-1 renal, more than 100 µM; in the test with TK-10 renal it was 86.6 µM; with BT-549 breast, 89.3 µM. Besides, the TGI in the test on MDA-MB-435 is more than 100 µM; in the test with NCI-H460 lung, 47.3 µM; in the test with SNB-19 CNS, more than 100 µM; with SK-MEL-28 melanoma, 47.4 µM; with SF-268 CNS, 97.2 µM; with SW-620 colon, more than 100 µM. The TGI in the test on HCT-15 colon amounted to 65.3 µM; in the test on K-562 leukemia, 51.5 µM.

For `CN1C(=O)C(O)CC1c1ccccc1F` (stereo unspecified), the TGI with NCI-H226 lung, in the test on CCRF-CEM leukemia, in the test with ACHN renal, in the test on CAKI-1 renal, with RXF 393 renal and with COLO 205 colon was more than 100 µM in each case. In addition, the TGI in the test with NCI/ADR-RES ovarian, in the test with EKVX NSCLC, with HOP-92 NSCLC, in the test with BT-549 breast, in the test with MDA-MB-435 and in the test with NCI-H460 lung was more than 100 µM each time. The TGI in the test with SNB-19 CNS, with SK-MEL-28 melanoma, in the test on SW-620 colon, in the test on HCT-15 colon and in the test with K-562 leukemia was more than 100 µM each time.

Turning to `CC(=O)Nc1ccc2cc(C#N)c(=O)[nH]c2n1`, the TGI in the test with NCI-H226 lung, with ACHN renal, in the test on CAKI-1 renal, in the test with RXF 393 renal, with COLO 205 colon and in the test on TK-10 renal was more than 100 µM in each case. Further, the TGI in the test with NCI/ADR-RES ovarian, in the test on EKVX NSCLC, with HOP-92 NSCLC, with BT-549 breast, in the test on MDA-MB-435 and in the test with NCI-H460 lung was more than 100 µM throughout. Besides, the concentration for total growth inhibition (TGI) in the test with SNB-19 CNS, with SK-MEL-28 melanoma, with SF-268 CNS, in the test with SW-620 colon, in the test with HCT-15 colon and with K-562 leukemia was more than 100 µM each time.

Turning to `CC(=O)OC1CCn2c1nc1c2C(=O)C=C(N2CC2)C1=O` (stereo unspecified), the total growth inhibition concentration (TGI) worked out at 6 µM with NCI-H226 lung; 1.17 µM with CCRF-CEM leukemia; 0.173 µM in the test with ACHN renal; 0.124 µM in the test with CAKI-1 renal; 0.241 µM with RXF 393 renal; 0.219 µM in the test on COLO 205 colon. In addition, the TGI in the test with TK-10 renal is 0.86 µM; in the test with NCI/ADR-RES ovarian, 1.28 µM; in the test on EKVX NSCLC, 2.39 µM; in the test on HOP-92 NSCLC, 1.83 µM; in the test with BT-549 breast, 2.54 µM; with MDA-MB-435 it was 1.71 µM. For the same compound, the TGI in the test with NCI-H460 lung stood at 5.96 µM; in the test with SNB-19 CNS, 10.8 µM; with SK-MEL-28 melanoma, 0.147 µM; with SF-268 CNS, 0.784 µM; in the test on SW-620 colon it was 0.146 µM; with HCT-15 colon, 1.96 µM. Moreover, in the test with K-562 leukemia, the concentration for total growth inhibition (TGI) was 4.54 µM.

With `COc1ccc(NC(=O)CSc2nc(C)nc3c2sc(=S)n3-c2ccccc2)cc1`, the concentration for total growth inhibition (TGI) with NCI-H226 lung, in the test with CCRF-CEM leukemia, in the test on ACHN renal, in the test with CAKI-1 renal, with RXF 393 renal and in the test on COLO 205 colon was more than 10 µM in each case. Also, the TGI with TK-10 renal, in the test on NCI/ADR-RES ovarian, in the test with EKVX NSCLC, in the test with HOP-92 NSCLC, in the test with HS 578T breast and in the test on MDA-MB-435 was more than 10 µM each time. The TGI in the test with NCI-H460 lung, in the test with SNB-19 CNS, in the test with SK-MEL-28 melanoma, with SF-268 CNS, in the test with SW-620 colon and in the test on HCT-15 colon was more than 10 µM in each case. In addition, the TGI with K-562 leukemia is more than 10 µM.

Turning to `COc1ccc(NCc2cccc3c(=O)c4ccc(Cl)cc4oc23)cc1`, the TGI in the test with NCI-H226 lung, in the test with CCRF-CEM leukemia, in the test on ACHN renal, in the test on CAKI-1 renal, in the test on COLO 205 colon and in the test on TK-10 renal was more than 100 µM throughout. For the same compound, the TGI with NCI/ADR-RES ovarian, in the test on EKVX NSCLC, with HOP-92 NSCLC, with BT-549 breast, in the test on MDA-MB-435 and in the test on SK-MEL-28 melanoma was more than 100 µM throughout. The concentration for total growth inhibition (TGI) with SW-620 colon, with HCT-15 colon and in the test with K-562 leukemia was more than 100 µM throughout.
